Laboratory results from patent US20090137661A1, “PLANT DERIVED COMPOUNDS AND COMPOUND FORMULAE CONTAINING THE SAME FOR THE TREATMENT OF CERVICAL CANCER” (priority 2007, published 2009).
≈ marks a conversion by molar mass, not a printed value. Where two headings read alike, the source gives them in different places.

Assays:
[1] = system: HeLa cells; assay: Cytotoxicity assay (MTT assay) on HeLa cells; settings: for IC50: Homo sapiens, HeLa; for cytotoxicity to HeLa cells compared with Doxorubicin HCl: under the corresponding conditions
Description: HeLa cell line was obtained from Dr. S. S. Shen (Biomedical Engineering Research Laboratories of Industrial Technology Research Institute of Taiwan). HeLa cells are adherent cells and were propagated and maintained in Dulbecco's modified Eagle's medium (DMEM) supplemented with 10% fetal bovine serum (FBS), […] sodium bicarbonate (NaHCO3), 1 mM sodium pyruvate, and 0.1 mM non-essential amino acid.
(§1) Cytotoxicity Assay (MTT Assay)
The cytotoxicity of the compounds set forth herein to HeLa cells and HUVEC cells were determined by the MTT assay. The HUVEC cells were used to understand the cytotoxicity of said compounds to normal human cells. Besides, doxorubicin HCl was used as a comparative example so as to investigate the efficacy of the compounds according to the embodiments of the present invention.
Briefly, the MTT assay comprises the following steps: • (A) Cells were seeded in 96-well plates 3 hours before treatment, wherein the density of HeLa cell is 1×10^4 cells per well and the density of HUVEC cell is 2×10^4 cells per well; • (B) Cells were then treated with various concentrations of tested samples and incubated for a predetermined period (24, 48, and 72 hours); • (C) After the predetermined periods expired, the tested samples were removed and 100 μl MTT reagent (1 mg/ml) was added to each well; • (D) The plates were incubated at 37° C. with 5% of CO2 for 5 hours; • (E) The MTT reagent was removed and 100 μl DMSO was added to each well; • (F) The optical density (O.D.) of each well was determined by ELISA reader at a wavelength of 560 nm.
Each experiment was repeated for 3 times and the result shown in the tables herein were the mean value of the 3 repetitions. The O.D. of the vehicle control and experimental groups were recorded. The cell survival rate of each sample was calculated as follows:
Cell survival rate(%)=O.D.control/O.D.experimental*100%
Then, the cell survival rate was plotted against the compound concentration and the IC50 value of each compound was calculated by the GraFit data analysis software (Erithacus Software Ltd.).

[2] = system: HUVEC cells; assay: Cytotoxicity assay (MTT assay) on HUVEC cells; type: cell-based, human; settings: for IC50: Homo sapiens, HUVEC cells
Text: Human umbilical vein endothelial cells (HUVEC) were purchased from Food Industry Research and Development Institute in Hsin-Chu City, Taiwan. HUVEC cells were propagated and maintained in Medium 199 supplemented with 10% FBS, Heparin, and […].
as §1

[3] = 24 h, read-out: IC50 at 24 hours, HeLa
[4] = 48 h, read-out: IC50 at 48 hours, HeLa
[5] = 72 h, read-out: IC50 at 72 hours, HeLa
[6] = 24 hours, read-out: IC50 at 24 hours, HUVEC
[7] = 48 hours, read-out: IC50 at 48 hours, HUVEC
[8] = 72 hours, read-out: IC50 at 72 hours, HUVEC

SMILES	HeLa Cell Survival Rate ([1]; 0.1 μg/ml, 24 hrs)	HeLa Cell Survival Rate ([1]; 0.1 μg/ml, 48 hrs)	HeLa Cell Survival Rate ([1]; 0.1 μg/ml, 72 hrs)	HeLa Cell Survival Rate ([1]; 1 μg/ml, 24 hrs)	HeLa Cell Survival Rate ([1]; 1 μg/ml, 48 hrs)	HeLa Cell Survival Rate ([1]; 1 μg/ml, 72 hrs)	HeLa Cell Survival Rate ([1]; 100 μg/ml, 24 hrs)	HeLa Cell Survival Rate ([1]; 100 μg/ml, 48 hrs)	HeLa Cell Survival Rate ([1]; 100 μg/ml, 72 hrs)	HUVEC/HeLa ratio of IC50 ([1]; 24 hours)	HUVEC/HeLa ratio of IC50 ([1]; 72 hours)	IC50 [1, 3]	IC50 [1, 4]	IC50 [1, 5]	IC50 [2, 6]	IC50 [2, 7]	IC50 [2, 8]	HeLa Cell Survival Rate ([1]; 10 μg/ml, 24 hrs)	HeLa Cell Survival Rate ([1]; 10 μg/ml, 48 hrs)	HeLa Cell Survival Rate ([1]; 10 μg/ml, 72 hrs)	further results
CC(C)[C@]12O[C@H]1[C@@H]1O[C@]13[C@]1(O[C@H]1C[C@H]1C4=C(CC[C@@]13C)C(=O)OC4)[C@@H]2O [Compound B, triptolide]	33%	14%	9%	26%	12%	9%	20%	13%	9%	>13.9	29.3	0.0721 mg/L (≈ 0.2 µM)	0.00724 mg/L (≈ 0.0201 µM)	0.00287 mg/L (≈ 0.00796 µM)	> 1 mg/L	0.151 mg/L (≈ 0.419 µM)	0.084 mg/L (≈ 0.233 µM)	–	–	–	HeLa Cell Survival Rate ([1]; 0.001 μg/ml, 24 hrs): 98%; HeLa Cell Survival Rate ([1]; 0.001 μg/ml, 48 hrs): 94%; HeLa Cell Survival Rate ([1]; 0.001 μg/ml, 72 hrs): 81%; HeLa Cell Survival Rate ([1]; 0.01 μg/ml, 24 hrs): 89%; HeLa Cell Survival Rate ([1]; 0.01 μg/ml, 48 hrs): 37%; HeLa Cell Survival Rate ([1]; 0.01 μg/ml, 72 hrs): 15%; HUVEC/HeLa ratio of IC50 ([1]; 48 hours): 20.9; cytotoxicity to HeLa cells compared with Doxorubicin HCl [1]: higher cytotoxicity; HUVEC Cell Survival Rate ([2]; 0.001 μg/ml, 24 hrs): 93%; HUVEC Cell Survival Rate ([2]; 0.001 μg/ml, 48 hrs): 102%; HUVEC Cell Survival Rate ([2]; 0.001 μg/ml, 72 hrs): 108%; HUVEC Cell Survival Rate ([2]; 0.01 μg/ml, 24 hrs): 94%; HUVEC Cell Survival Rate ([2]; 0.01 μg/ml, 48 hrs): 111%; HUVEC Cell Survival Rate ([2]; 0.01 μg/ml, 72 hrs): 114%; HUVEC Cell Survival Rate ([2]; 0.1 μg/ml, 24 hrs): 59%; HUVEC Cell Survival Rate ([2]; 0.1 μg/ml, 48 hrs): 36%; HUVEC Cell Survival Rate ([2]; 0.1 μg/ml, 72 hrs): 23%; HUVEC Cell Survival Rate ([2]; 1 μg/ml, 24 hrs): 71%; HUVEC Cell Survival Rate ([2]; 1 μg/ml, 48 hrs): 35%; HUVEC Cell Survival Rate ([2]; 1 μg/ml, 72 hrs): 23%
O=c1c(O)c(-c2ccc(O)c(O)c2)oc2cc(O)cc(O)c12 [Compound E, quercetin]	93%	–	–	–	–	91%	–	32%	12%	–	–	> 100 mg/L	20 mg/L (≈ 66.2 µM)	6 mg/L (≈ 19.9 µM)	> 100 mg/L	104 mg/L (≈ 344 µM)	36 mg/L (≈ 119 µM)	83%	51%	33%	HUVEC Cell Survival Rate ([2]; 10 μg/ml, 48 hrs): 87%; HUVEC Cell Survival Rate ([2]; 10 μg/ml, 72 hrs): 80%; HUVEC Cell Survival Rate ([2]; 100 μg/ml, 24 hrs): 120%; HUVEC Cell Survival Rate ([2]; 100 μg/ml, 48 hrs): 51%; HUVEC Cell Survival Rate ([2]; 100 μg/ml, 72 hrs): 26%
Cc1cc2c(C(C)C)c(O)c(O)c(C=O)c2c(O)c1-c1c(C)cc2c(C(C)C)c(O)c(O)c(C=O)c2c1O [Compound F, gossypol-acetic acid]	101%	103%	98%	97%	105%	98%	17%	13%	10%	1.0	2.9	29 mg/L (≈ 55.9 µM)	12 mg/L (≈ 23.1 µM)	8 mg/L (≈ 15.4 µM)	30 mg/L (≈ 57.9 µM)	33 mg/L (≈ 63.6 µM)	23 mg/L (≈ 44.4 µM)	80%	52%	40%	HUVEC/HeLa ratio of IC50 ([1]; 48 hours): 2.8; cytotoxicity to HeLa cells compared with Doxorubicin HCl [1]: higher cytotoxicity; HUVEC Cell Survival Rate ([2]; 0.1 μg/ml, 24 hrs): 93%; HUVEC Cell Survival Rate ([2]; 0.1 μg/ml, 48 hrs): 104%; HUVEC Cell Survival Rate ([2]; 0.1 μg/ml, 72 hrs): 103%; HUVEC Cell Survival Rate ([2]; 1 μg/ml, 24 hrs): 88%; HUVEC Cell Survival Rate ([2]; 1 μg/ml, 48 hrs): 104%; HUVEC Cell Survival Rate ([2]; 1 μg/ml, 72 hrs): 98%; HUVEC Cell Survival Rate ([2]; 10 μg/ml, 24 hrs): 80%; HUVEC Cell Survival Rate ([2]; 10 μg/ml, 48 hrs): 85%; HUVEC Cell Survival Rate ([2]; 10 μg/ml, 72 hrs): 71%; HUVEC Cell Survival Rate ([2]; 100 μg/ml, 24 hrs): 20%; HUVEC Cell Survival Rate ([2]; 100 μg/ml, 48 hrs): 17%; HUVEC Cell Survival Rate ([2]; 100 μg/ml, 72 hrs): 17%
O=C(O)[C@H]1O[C@@H](Oc2cc3oc(-c4ccccc4)cc(=O)c3c(O)c2O)[C@H](O)[C@@H](O)[C@@H]1O [Compound G, baicalin]	104%	94%	97%	103%	96%	97%	68%	50%	37%	–	2.4	> 125 mg/L	> 125 mg/L	92 mg/L (≈ 206 µM)	> 125 mg/L	> 125 mg/L	218 mg/L (≈ 488 µM)	109%	98%	97%	HUVEC Cell Survival Rate ([2]; 1.25 μg/ml, 24 hrs): 98%; HUVEC Cell Survival Rate ([2]; 1.25 μg/ml, 48 hrs): 96%; HUVEC Cell Survival Rate ([2]; 1.25 μg/ml, 72 hrs): 88%; HUVEC Cell Survival Rate ([2]; 12.5 μg/ml, 24 hrs): 97%; HUVEC Cell Survival Rate ([2]; 12.5 μg/ml, 48 hrs): 101%; HUVEC Cell Survival Rate ([2]; 12.5 μg/ml, 72 hrs): 75%; HUVEC Cell Survival Rate ([2]; 125 μg/ml, 24 hrs): 81%; HUVEC Cell Survival Rate ([2]; 125 μg/ml, 48 hrs): 76%; HUVEC Cell Survival Rate ([2]; 125 μg/ml, 72 hrs): 56%
